{"source": "ChEMBL document CHEMBL4507324", "about": "(2021)", "key": {"[1]": {"molecular_target": "Mitogen-activated protein kinase 11 (Homo sapiens, UniProt Q15759)", "sequence (Q15759 whole entry)": "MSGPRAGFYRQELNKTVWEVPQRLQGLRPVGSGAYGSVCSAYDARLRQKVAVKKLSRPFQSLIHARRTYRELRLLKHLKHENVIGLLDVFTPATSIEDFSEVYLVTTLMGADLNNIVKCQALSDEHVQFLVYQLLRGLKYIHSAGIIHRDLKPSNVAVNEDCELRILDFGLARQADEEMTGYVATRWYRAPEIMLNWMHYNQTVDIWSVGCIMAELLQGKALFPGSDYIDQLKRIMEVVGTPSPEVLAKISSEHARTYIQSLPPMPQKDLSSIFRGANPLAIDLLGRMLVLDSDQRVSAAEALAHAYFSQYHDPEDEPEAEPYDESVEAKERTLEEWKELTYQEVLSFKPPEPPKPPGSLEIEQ", "experiment": "NanoBRET (SGC-Frankfurt) (MAPK11)"}, "[2]": {"molecular_target": "Serine/threonine-protein kinase Chk2 (Homo sapiens, UniProt O96017)", "sequence (O96017 whole entry)": "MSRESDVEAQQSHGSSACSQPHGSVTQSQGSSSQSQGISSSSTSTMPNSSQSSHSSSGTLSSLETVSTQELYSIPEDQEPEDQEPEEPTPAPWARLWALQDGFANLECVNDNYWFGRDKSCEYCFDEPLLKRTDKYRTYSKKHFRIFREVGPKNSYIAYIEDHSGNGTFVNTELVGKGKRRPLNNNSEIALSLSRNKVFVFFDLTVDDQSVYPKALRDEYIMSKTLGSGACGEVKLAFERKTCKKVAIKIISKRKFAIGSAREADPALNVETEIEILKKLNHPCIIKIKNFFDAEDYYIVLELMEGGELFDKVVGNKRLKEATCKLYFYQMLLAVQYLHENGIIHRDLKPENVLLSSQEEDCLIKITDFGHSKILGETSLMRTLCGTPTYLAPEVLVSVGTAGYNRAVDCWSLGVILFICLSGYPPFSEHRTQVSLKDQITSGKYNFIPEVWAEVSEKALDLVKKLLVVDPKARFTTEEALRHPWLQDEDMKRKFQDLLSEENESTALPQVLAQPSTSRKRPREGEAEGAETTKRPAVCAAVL", "experiment": "NanoBRET (SGC-Frankfurt) (CHEK2)"}, "[3]": {"molecular_target": "Serine/threonine-protein kinase 38-like (Homo sapiens, UniProt Q9Y2H1)", "experiment": "NanoBRET (SGC-Frankfurt) (STK38L)"}, "[4]": {"molecular_target": "Alpha-1A adrenergic receptor (Homo sapiens) (UniProt P35348)", "conditions": "Compound concentration 10.0 uM; call rule not given here"}, "[5]": {"molecular_target": "5-hydroxytryptamine receptor 2A (Homo sapiens) (UniProt P28223)", "sequence (P28223 whole entry)": "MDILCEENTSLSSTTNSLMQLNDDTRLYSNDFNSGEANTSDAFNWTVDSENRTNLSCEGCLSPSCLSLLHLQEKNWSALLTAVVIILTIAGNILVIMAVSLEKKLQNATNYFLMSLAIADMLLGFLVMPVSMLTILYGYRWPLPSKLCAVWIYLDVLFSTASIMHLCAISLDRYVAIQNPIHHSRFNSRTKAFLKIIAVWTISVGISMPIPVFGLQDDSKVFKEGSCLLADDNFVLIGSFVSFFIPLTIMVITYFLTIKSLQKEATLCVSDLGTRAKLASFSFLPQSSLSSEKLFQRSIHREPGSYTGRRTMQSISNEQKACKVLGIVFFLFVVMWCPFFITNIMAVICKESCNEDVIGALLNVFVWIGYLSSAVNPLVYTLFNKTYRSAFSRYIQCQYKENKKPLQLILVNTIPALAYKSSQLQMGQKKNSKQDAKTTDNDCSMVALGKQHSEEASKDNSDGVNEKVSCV", "conditions": "Compound concentration 10.0 uM"}, "[6]": {"molecular_target": "Sigma intracellular receptor 2 (Homo sapiens) (UniProt Q5BJF2)", "sequence (Q5BJF2 whole entry)": "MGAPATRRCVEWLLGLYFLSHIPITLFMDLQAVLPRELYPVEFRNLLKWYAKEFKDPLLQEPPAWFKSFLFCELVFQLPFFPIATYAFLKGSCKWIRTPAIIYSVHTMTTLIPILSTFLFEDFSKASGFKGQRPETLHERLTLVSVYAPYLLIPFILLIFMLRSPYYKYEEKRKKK", "conditions": "Compound concentration 10.0 uM"}, "[7]": {"molecular_target": "Alpha-2B adrenergic receptor (Homo sapiens) (UniProt P18089)", "sequence (P18089 whole entry)": "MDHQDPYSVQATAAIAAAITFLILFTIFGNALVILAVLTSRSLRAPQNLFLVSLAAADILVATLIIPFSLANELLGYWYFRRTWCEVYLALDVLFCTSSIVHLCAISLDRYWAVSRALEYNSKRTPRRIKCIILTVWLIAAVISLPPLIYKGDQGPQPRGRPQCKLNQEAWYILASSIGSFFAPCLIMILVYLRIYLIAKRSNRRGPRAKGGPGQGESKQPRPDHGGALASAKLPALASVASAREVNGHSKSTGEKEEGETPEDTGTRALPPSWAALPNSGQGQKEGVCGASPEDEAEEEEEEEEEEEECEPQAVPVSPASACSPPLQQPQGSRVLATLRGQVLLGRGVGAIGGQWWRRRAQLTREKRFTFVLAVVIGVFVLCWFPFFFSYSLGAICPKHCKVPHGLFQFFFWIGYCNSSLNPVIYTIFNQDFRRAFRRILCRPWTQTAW", "conditions": "Compound concentration 10.0 uM"}, "[8]": {"molecular_target": "Muscarinic acetylcholine receptor M1 (Homo sapiens) (UniProt P11229)", "sequence (P11229 whole entry)": "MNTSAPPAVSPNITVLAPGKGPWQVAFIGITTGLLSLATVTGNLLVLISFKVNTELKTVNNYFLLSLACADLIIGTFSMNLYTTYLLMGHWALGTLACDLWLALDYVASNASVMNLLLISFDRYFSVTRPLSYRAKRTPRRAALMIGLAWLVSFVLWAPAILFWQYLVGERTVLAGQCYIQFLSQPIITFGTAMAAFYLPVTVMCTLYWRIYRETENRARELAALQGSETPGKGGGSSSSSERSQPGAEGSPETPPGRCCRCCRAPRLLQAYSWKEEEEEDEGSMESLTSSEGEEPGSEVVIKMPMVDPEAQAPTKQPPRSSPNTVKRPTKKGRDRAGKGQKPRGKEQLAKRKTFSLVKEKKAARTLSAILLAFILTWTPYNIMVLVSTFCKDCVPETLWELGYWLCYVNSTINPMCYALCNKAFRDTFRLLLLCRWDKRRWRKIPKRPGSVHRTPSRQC", "conditions": "Compound concentration 10.0 uM"}, "[9]": {"molecular_target": "Histamine H3 receptor (Homo sapiens) (UniProt Q9Y5N1)", "sequence (Q9Y5N1 whole entry)": "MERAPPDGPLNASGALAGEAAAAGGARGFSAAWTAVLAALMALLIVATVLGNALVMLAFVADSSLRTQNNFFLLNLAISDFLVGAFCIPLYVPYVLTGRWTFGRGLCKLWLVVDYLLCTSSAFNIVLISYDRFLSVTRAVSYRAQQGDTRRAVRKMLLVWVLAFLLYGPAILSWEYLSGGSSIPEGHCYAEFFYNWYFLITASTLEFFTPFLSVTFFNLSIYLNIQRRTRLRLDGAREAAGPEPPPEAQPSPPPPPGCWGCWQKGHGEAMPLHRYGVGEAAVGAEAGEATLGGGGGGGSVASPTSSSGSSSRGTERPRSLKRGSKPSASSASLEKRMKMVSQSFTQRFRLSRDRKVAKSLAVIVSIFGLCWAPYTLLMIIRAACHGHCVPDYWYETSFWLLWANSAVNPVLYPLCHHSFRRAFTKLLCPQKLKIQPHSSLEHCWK", "conditions": "Compound concentration 10.0 uM"}, "[10]": {"molecular_target": "5-hydroxytryptamine receptor 3A (Homo sapiens) (UniProt P46098)", "conditions": "Compound concentration 10.0 uM"}, "[11]": {"molecular_target": "5-hydroxytryptamine receptor 2C (Homo sapiens) (UniProt P28335)", "conditions": "Compound concentration 10.0 uM"}, "[12]": {"molecular_target": "Sodium-dependent serotonin transporter (Homo sapiens) (UniProt P31645)", "sequence (P31645 whole entry, looked up)": "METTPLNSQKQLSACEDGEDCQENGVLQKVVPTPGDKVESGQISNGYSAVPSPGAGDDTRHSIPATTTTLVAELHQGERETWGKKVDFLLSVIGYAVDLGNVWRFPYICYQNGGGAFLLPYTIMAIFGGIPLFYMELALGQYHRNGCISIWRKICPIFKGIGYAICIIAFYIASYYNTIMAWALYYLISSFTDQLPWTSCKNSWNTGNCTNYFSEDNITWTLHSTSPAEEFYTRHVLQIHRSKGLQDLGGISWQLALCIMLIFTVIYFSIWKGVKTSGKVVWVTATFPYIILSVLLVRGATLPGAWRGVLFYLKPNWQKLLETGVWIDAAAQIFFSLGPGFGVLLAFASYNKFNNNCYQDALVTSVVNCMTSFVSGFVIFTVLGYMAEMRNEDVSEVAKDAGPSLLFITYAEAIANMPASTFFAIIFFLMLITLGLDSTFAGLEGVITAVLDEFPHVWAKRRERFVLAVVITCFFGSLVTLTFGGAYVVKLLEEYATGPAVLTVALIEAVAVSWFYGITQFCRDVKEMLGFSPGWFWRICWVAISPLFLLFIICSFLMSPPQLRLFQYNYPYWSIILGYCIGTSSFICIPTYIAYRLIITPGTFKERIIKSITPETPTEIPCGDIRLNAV", "conditions": "Compound concentration 10.0 uM"}, "[13]": {"molecular_target": "GABA-A receptor; anion channel (Rattus norvegicus) (UniProt O09028+P15431+P18506+P18508+P19969+P20236+P23574+P23576+P28471+P28473+P30191+P62813+P63079+P63138+Q91ZM7+Q9ES14)", "conditions": "Compound concentration 10.0 uM"}, "[14]": {"molecular_target": "Muscarinic acetylcholine receptor M2 (Homo sapiens) (UniProt P08172)", "sequence (P08172 whole entry)": "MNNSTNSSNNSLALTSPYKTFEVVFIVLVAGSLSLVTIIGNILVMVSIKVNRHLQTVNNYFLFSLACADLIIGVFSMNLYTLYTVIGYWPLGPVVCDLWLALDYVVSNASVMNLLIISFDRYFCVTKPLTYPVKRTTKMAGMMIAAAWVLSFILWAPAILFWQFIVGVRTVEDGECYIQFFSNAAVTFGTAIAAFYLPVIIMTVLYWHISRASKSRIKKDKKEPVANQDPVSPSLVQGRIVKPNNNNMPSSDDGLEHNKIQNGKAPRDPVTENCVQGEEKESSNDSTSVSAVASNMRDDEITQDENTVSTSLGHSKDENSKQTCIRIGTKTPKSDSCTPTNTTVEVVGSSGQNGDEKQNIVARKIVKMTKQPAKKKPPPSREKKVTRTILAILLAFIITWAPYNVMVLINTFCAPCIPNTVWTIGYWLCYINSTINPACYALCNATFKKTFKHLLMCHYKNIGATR", "conditions": "Compound concentration 10.0 uM"}, "[15]": {"molecular_target": "D(2) dopamine receptor (Homo sapiens) (UniProt P14416)", "sequence (P14416 whole entry)": "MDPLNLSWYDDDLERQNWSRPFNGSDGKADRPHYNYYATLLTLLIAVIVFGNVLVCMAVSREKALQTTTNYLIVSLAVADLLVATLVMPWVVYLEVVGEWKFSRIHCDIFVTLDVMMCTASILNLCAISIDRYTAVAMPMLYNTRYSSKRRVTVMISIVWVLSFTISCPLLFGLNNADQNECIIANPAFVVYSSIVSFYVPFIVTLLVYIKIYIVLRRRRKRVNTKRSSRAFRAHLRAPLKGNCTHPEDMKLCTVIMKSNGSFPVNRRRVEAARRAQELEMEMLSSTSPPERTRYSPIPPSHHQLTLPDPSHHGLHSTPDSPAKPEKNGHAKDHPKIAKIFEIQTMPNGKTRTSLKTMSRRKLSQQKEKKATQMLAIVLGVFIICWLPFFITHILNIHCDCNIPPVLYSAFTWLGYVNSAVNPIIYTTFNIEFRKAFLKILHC", "conditions": "Compound concentration 10.0 uM"}, "[16]": {"molecular_target": "D(4) dopamine receptor (Homo sapiens) (UniProt P21917)", "sequence (P21917 whole entry)": "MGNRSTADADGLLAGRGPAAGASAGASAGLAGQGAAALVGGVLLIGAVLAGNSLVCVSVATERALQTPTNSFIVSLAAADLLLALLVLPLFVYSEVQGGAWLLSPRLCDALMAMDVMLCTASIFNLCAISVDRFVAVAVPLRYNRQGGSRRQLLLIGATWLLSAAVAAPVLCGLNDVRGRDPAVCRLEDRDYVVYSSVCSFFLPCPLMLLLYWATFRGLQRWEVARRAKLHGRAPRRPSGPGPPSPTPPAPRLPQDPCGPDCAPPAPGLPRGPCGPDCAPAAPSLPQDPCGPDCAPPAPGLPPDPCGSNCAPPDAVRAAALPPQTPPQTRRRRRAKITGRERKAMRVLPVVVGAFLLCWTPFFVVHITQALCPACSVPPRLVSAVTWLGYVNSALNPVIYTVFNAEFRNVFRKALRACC", "conditions": "Compound concentration 10.0 uM"}}, "data": [{"smiles": "CS(=O)(=O)N1CCCC(NC(=O)[C@H](CCC2CCCCC2)NC(=O)c2ccc(CNc3ncnc4c3nnn4-c3ccccc3)cc2)C1", "note": "(stereo partly specified) [SR-301]", "values": [{"measurement": "IC50", "setting": "[1]", "value": "1.63 µM (not active)"}]}, {"smiles": "CS(=O)(=O)N1CCCC(NC(=O)[C@H](CCC2CCCCC2)NC(=O)c2ccc(CNC(=O)c3cnc4ccccn34)cc2)C1", "note": "(stereo partly specified) [SR-302]", "values": [{"measurement": "IC50", "setting": "[2]", "value": "> 25", "unit": "µM"}, {"measurement": "IC50", "setting": "[3]", "value": "> 25", "unit": "µM"}, {"measurement": "inhibition", "setting": "[4]", "value": 34.9, "unit": "%"}, {"measurement": "inhibition", "setting": "[5]", "value": 3.03, "unit": "%"}, {"measurement": "inhibition", "setting": "[6]", "value": 32, "unit": "%"}, {"measurement": "inhibition", "setting": "[7]", "value": 13.5, "unit": "%"}, {"measurement": "inhibition", "setting": "[8]", "value": 28.4, "unit": "%"}, {"measurement": "inhibition", "setting": "[9]", "value": 0.32, "unit": "%"}, {"measurement": "inhibition", "setting": "[10]", "value": 3.83, "unit": "%"}, {"measurement": "inhibition", "setting": "[11]", "value": 8.24, "unit": "%"}, {"measurement": "inhibition", "setting": "[12]", "value": 19.8, "unit": "%"}, {"measurement": "inhibition", "setting": "[13]", "value": 31.9, "unit": "%"}, {"measurement": "inhibition", "setting": "[14]", "value": 18.5, "unit": "%"}, {"measurement": "inhibition", "setting": "[15]", "value": 7.14, "unit": "%"}, {"measurement": "inhibition", "setting": "[16]", "value": 3.78, "unit": "%"}]}]}
